Experimental data as given in patent publication US12486269B2 (Aconcagua Bio, Inc., priority 2024, dated 2025).

What was measured:
[1] = target: T1, COS-7/AMY3 (human calcitonin receptor (CTR) and RAMP3) (Homo sapiens, UniProt O60896+P30988); assay: Amylin Receptor cAMP Assay II; type: cell-based; conditions: values marked **: Amylin Receptor cAMP Assay II; COS-7/AMY3 cells, cAMP dynamic 2 kit, 30 min; read-out: Amylin Receptor cAMP Stimulation Activity: EC50
T1 construct: expressed in transfected cells; host or cells: COS-7
T1 sequence (O60896 24-148, one chain of several): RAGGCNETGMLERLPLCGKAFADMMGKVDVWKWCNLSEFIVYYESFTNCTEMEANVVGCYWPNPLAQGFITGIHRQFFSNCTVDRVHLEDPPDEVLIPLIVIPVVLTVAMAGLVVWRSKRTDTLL
In short: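 COS-7 cells stably co-expressing human CTR and RAMP3 (AMY3), 2000 cells/well in HBSS with 20 mM HEPES, 0.5 mM IBMX, 0.1% casein, stimulated with compound for 30 min at 37 °C. cAMP measured by HTRF (665/615 nm), activity normalized between vehicle and maximal control.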

[2] = target: T2, human calcitonin receptor (CTR) (Homo sapiens, UniProt P30988); assay: Calcitonin Receptor (CTR) cAMP Assay; type: cell-based; conditions: COS7-human CTR Clone #2 stable cell line, cAMP dynamic 2 kit, 30 min; read-out: Calcitonin Receptor cAMP Stimulation Activity: EC50
T2 construct: expressed in transfected cells; host or cells: COS-7 (COS7-human CTR Clone #2)
T2 sequence (P30988 25-474): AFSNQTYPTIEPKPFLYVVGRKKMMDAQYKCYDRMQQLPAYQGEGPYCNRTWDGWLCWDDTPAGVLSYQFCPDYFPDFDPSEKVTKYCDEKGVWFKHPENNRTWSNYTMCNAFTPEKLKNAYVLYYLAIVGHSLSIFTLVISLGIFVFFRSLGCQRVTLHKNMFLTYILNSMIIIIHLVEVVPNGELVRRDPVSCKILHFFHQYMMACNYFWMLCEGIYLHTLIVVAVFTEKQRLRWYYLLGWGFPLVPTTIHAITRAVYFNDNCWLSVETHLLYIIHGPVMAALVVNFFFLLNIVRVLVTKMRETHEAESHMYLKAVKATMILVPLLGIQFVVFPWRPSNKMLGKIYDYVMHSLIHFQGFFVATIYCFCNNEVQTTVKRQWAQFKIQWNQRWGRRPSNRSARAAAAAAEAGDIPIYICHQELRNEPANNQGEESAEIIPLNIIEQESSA
In short: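 COS-7 cells stably expressing human CTR (2000 cells/well) were incubated 30 min at 37 °C with 4-fold serially diluted compound in HBSS/20 mM HEPES/0.5 mM IBMX/0.1% casein. cAMP was detected by HTRF (665/615 nm) after 1 h at RT. % activity was normalised to vehicle and positive controls.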

SMILES	EC50 [1]	EC50 [2]
N#Cc1ccc(Cn2c(=O)oc3cc(-c4c(-c5n[nH]c(=O)o5)c(CCc5ccc(F)cc5)nc5c4c(=O)n4n5CCC4)ccc32)cc1F [Compound 162, 2-fluoro-4-((6-(2-(4-fluorophenethyl)-5-oxo-3-(5-oxo-4,5-dihydro-1,3,4-oxadiazol-2-yl)-8,9-dihydro-5H,7H-pyrazolo[1′,2′:1,2]pyrazolo[3,4-b]pyridin-4-yl)-2-oxobenzo[d]oxazol-3(2H)-yl)methyl)benzonitrile]	3.71 nM	0.157 nM
CN(Cc1ccc(F)c(F)c1)C(=O)c1ccc(-c2c3c(nc(CCc4ccc(F)cc4)c2-c2noc(=O)[nH]2)[C@@H]2CCCN2C3=O)s1 [Compound 115]	566 nM	28.8 nM
CC(C)C1CS(=O)(=O)c2c1nc(CCC1CCOCC1)c(-c1n[nH]c(=O)o1)c2-c1cnc2c(ccn2Cc2ccc(C#N)c(F)c2)c1 (stereo not drawn) [Compound 157, 2-fluoro-4-((5-(3-isopropyl-1,1-dioxido-6-(5-oxo-4,5-dihydro-1,3,4-oxadiazol-2-yl)-5-(2-(tetrahydro-2H-pyran-4-yl)ethyl)-2,3-dihydrothieno[3,2-b]pyridin-7-yl)-1H-pyrrolo[2,3-b]pyridin-1-yl)methyl)benzonitrile]	115 nM	7.42 nM
COc1c(Cl)ccc2c1CC[C@H]2Nc1nccc2cc(-c3c4c(nc(CCc5ccc(F)cc5)c3-c3n[nH]c(=O)o3)[C@@H]3CCCN3C4=O)sc12 [Compound 173, 5—((S)-4-(7-(((R)-5-chloro-4-methoxy-2,3-dihydro-1H-inden-1-yl)amino)thieno[2,3-c]pyridin-2-yl)-2-(4-fluorophenethyl)-5-oxo-7,8,9,9a-tetrahydro-5H-pyrido[2,3-a]pyrrolizin-3-yl)-1,3,4-oxadiazol-2(3H)-one]	16.9 nM	0.788 nM
COc1cccc2c1CC[C@H]2Nc1nccc2cc(-c3c4c(nc(CCc5ccc(F)cc5)c3-c3noc(=O)[nH]3)[C@@H]3CCCN3C4=O)sc12 [Compound 104]	25.5 nM	0.926 nM
O=C1c2c(nc(CCc3ccc(F)cc3)c(-c3noc(=O)[nH]3)c2-c2ccc3c(ccn3Cc3ccc(F)c(F)c3)c2)[C@@H]2CCCN12 [Compound 153]	16.6 nM	2.58 nM
O=C1c2c(nc(CCc3ccc(F)cc3)c(-c3noc(=O)[nH]3)c2-c2ccc3nn(C4CCc5ccccc54)cc3c2)[C@@H]2CCCN12 (stereo partly drawn) [Compound 152]	5100 nM	513 nM

Continued, values first:

EC50 [1]	EC50 [2]	SMILES
1.52 nM	0.152 nM	O=C1c2c(nc(CCc3ccc(F)cc3)c(-c3n[nH]c(=O)o3)c2-c2cc3ccnc(N[C@@H]4CCOc5c(F)cc(F)cc54)c3s2)[C@@H]2CCCN12 [Compound 259, 5-((S)-4-(7-(((R)-6,8-difluorochroman-4-yl)amino)thieno[2,3-c]pyridin-2-yl)-2-(4-fluorophenethyl)-5-oxo-7,8,9,9a-tetrahydro-5H-pyrido[2,3-a]pyrrolizin-3-yl)-1,3,4-oxadiazol-2(3H)-one]
1.59 nM	0.0436 nM	COc1c(F)cc(F)c2c1CC[C@H]2Nc1nccc2cc(-c3c4c(nc(CCc5ccc(F)cc5)c3-c3n[nH]c(=O)o3)C35CC(CN3C4=O)C5)sc12 [Compound 288, (R)-5-(4-(7-((5,7-difluoro-4-methoxy-2,3-dihydro-1H-inden-1-yl)amino)thieno[2,3-c]pyridin-2-yl)-2-(4-fluorophenethyl)-5-oxo-8,9-dihydro-5H,7H-8,9a-methanopyrido[2,3-a]pyrrolizin-3-yl)-1,3,4-oxadiazol-2(3H)-one]
0.857 nM	0.0551 nM	COc1c(F)ccc2c1C[C@@H](F)[C@H]2Nc1nc(C)cc2cc(-c3c4c(nc(CCc5ccc(F)cc5)c3-c3n[nH]c(=O)o3)[C@@H]3CCCN3C4=O)sc12 [Compound 301, 5-((S)-4-(7-(((1S,2R)-2,5-difluoro-4-methoxy-2,3-dihydro-1H-inden-1-yl)amino)-5-methylthieno[2,3-c]pyridin-2-yl)-2-(4-fluorophenethyl)-5-oxo-7,8,9,9a-tetrahydro-5H-pyrido[2,3-a]pyrrolizin-3-yl)-1,3,4-oxadiazol-2(3H)-one]
0.394 nM	0.0262 nM	COc1c(F)ccc2c1CC[C@H]2Nc1nccc2cc(-c3c4c(nc(CCc5cccc(F)c5)c3-c3n[nH]c(=O)o3)C35CC(CN3C4=O)C5)sc12 [Compound 275, (R)-5-(4-(7-((5-fluoro-4-methoxy-2,3-dihydro-1H-inden-1-yl)amino)thieno[2,3-c]pyridin-2-yl)-2-(3-fluorophenethyl)-5-oxo-8,9-dihydro-5H,7H-8,9a-methanopyrido[2,3-a]pyrrolizin-3-yl)-1,3,4-oxadiazol-2(3H)-one]
342 nM	5.7 nM	COc1cccc2c1CC[C@H]2Nc1nccc2cc(-c3c4c(nc(CCC5CCOCC5)c3-c3cc(=O)[nH]o3)[C@@H]3CCCN3C4=O)sc12 [Compound 205, 5-((S)-4-(7-(((R)-4-methoxy-2,3-dihydro-1H-inden-1-yl)amino)thieno[2,3-c]pyridin-2-yl)-5-oxo-2-(2-(tetrahydro-2H-pyran-4-yl)ethyl)-7,8,9,9a-tetrahydro-5H-pyrido[2,3-a]pyrrolizin-3-yl)isoxazol-3(2H)-one]
1.07 nM	0.0413 nM	O=C1c2c(nc(CCc3ccc(F)cc3)c(-c3n[nH]c(=O)o3)c2-c2cc3cc(C(F)F)nc(N[C@@H]4CCOc5c(F)cc(F)cc54)c3s2)C23CC(CN12)C3 [Compound 297, (R)-5-(4-(7-((6,8-difluorochroman-4-yl)amino)-5-(difluoromethyl)thieno[2,3-c]pyridin-2-yl)-2-(4-fluorophenethyl)-5-oxo-8,9-dihydro-5H,7H-8,9a-methanopyrido[2,3-a]pyrrolizin-3-yl)-1,3,4-oxadiazol-2(3H)-one]
4.23 nM	0.143 nM	O=C1c2c(nc(CCc3ccc(F)cc3)c(-c3n[nH]c(=O)o3)c2-c2cc3ccnc(N[C@@H]4CCc5c(F)cc(F)cc54)c3s2)[C@@H]2CCCN12 [Compound 183, 5-((S)-4-(7-(((R)-4,6-difluoro-2,3-dihydro-1H-inden-1-yl)amino)thieno[2,3-c]pyridin-2-yl)-2-(4-fluorophenethyl)-5-oxo-7,8,9,9a-tetrahydro-5H-pyrido[2,3-a]pyrrolizin-3-yl)-1,3,4-oxadiazol-2(3H)-one]
1590 nM	26.1 nM	O=C1c2c(nc(CCC3CCOCC3)c(-c3cc(=O)[nH]o3)c2-c2cc3ccnc(NCc4ccc(F)c(F)c4)c3s2)[C@@H]2CCCN12 [Compound 206, (S)-5-(4-(7-((3,4-difluorobenzyl)amino)thieno[2,3-c]pyridin-2-yl)-5-oxo-2-(2-(tetrahydro-2H-pyran-4-yl)ethyl)-7,8,9,9a-tetrahydro-5H-pyrido[2,3-a]pyrrolizin-3-yl)isoxazol-3(2H)-one]
47.8 nM	0.706 nM	COc1cccc2c1CC[C@H]2Nc1nccc2cc(-c3c4c(nc(C[C@H]5COc6cc(F)ccc65)c3-c3n[nH]c(=O)o3)[C@@H]3CCCN3C4=O)sc12 [Compound 217, 5-((S)-2-(((R)-6-fluoro-2,3-dihydrobenzofuran-3-yl)methyl)-4-(7-(((R)-4-methoxy-2,3-dihydro-1H-inden-1-yl)amino)thieno[2,3-c]pyridin-2-yl)-5-oxo-7,8,9,9a-tetrahydro-5H-pyrido[2,3-a]pyrrolizin-3-yl)-1,3,4-oxadiazol-2(3H)-one]
18.1 nM	0.236 nM	COc1cccc2c1CC[C@H]2Nc1nccc2cc(-c3c4c(nc(CCc5ccc(F)cc5)c3-c3n[nH]c(=O)o3)[C@@H]3COCCN3C4=O)sc12 [Compound 235, (R)-2-(4-fluorophenethyl)-4-(7-(((R)-4-methoxy-2,3-dihydro-1H-inden-1-yl)amino)thieno[2,3-c]pyridin-2-yl)-3-(5-oxo-4,5-dihydro-1,3,4-oxadiazol-2-yl)-7,8,10,10a-tetrahydro-5H-pyrido[2′,3′:3,4]pyrrolo[2,1-c][1,4]oxazin-5-one]
11.2 nM	1.18 nM	COc1cccc2c1CC[C@H]2Nc1nccc2cc(-c3c4c(nc(CCc5ccc(-n6cccn6)cc5)c3-c3n[nH]c(=O)o3)[C@@H]3CCCN3C4=O)sc12 [Compound 243, 5-((S)-2-(4-(1H-pyrazol-1-yl)phenethyl)-4-(7-(((R)-4-methoxy-2,3-dihydro-1H-inden-1-yl)amino)thieno[2,3-c]pyridin-2-yl)-5-oxo-7,8,9,9a-tetrahydro-5H-pyrido[2,3-a]pyrrolizin-3-yl)-1,3,4-oxadiazol-2(3H)-one]
